Positions count from the first letter of the chain named.
Columns and labels:
GLP-2R R344^5.40A = molecular target: T1, GLP-2R R344^5.40A (Homo sapiens, UniProt O95838, R344A); assay: cAMP accumulation, R344^5.40A; assay type: cell-based; conditions: Table S3, R344A; HEK 293T, 30 min, RT; mean ± SEM, n ≥ 3 in duplicate; read-out: cAMP Emax (% WT)
T1 sequence (O95838 1-553 R344A): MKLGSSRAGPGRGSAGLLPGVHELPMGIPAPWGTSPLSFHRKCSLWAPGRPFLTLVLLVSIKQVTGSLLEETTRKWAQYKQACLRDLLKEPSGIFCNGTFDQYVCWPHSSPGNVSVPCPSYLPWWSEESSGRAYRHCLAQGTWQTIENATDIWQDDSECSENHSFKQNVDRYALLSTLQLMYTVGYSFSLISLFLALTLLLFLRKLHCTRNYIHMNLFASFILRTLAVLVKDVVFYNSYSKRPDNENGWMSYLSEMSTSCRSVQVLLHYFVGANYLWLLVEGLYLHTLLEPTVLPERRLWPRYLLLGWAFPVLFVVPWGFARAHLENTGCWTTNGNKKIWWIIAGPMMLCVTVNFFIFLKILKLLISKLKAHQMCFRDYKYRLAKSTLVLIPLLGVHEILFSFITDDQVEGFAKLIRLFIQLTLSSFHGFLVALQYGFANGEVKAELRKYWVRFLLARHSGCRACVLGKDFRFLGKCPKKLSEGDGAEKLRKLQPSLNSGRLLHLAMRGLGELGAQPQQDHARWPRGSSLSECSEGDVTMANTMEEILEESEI
Description: (§1) HEK 293T cells were cultured in Dulbecco’s Modified Eagle’s Medium (DMEM) (Gibco, Waltham, USA) supplemented with 10% (v/v) fetal bovine serum (FBS) (Gibco) and 1% (v/v) sodium pyruvate (Gibco) at 37 °C, 5% CO2 in a humidified incubator. They were seeded onto 6-well cell culture plates and transiently transfected with different GLP-2R constructs using Lipofectamine 2000 transfection reagent (Invitrogen, Carlsbad, CA, USA). After 24 h, the transfected cells were seeded onto 384-well microtiter plates (3000 cells per well) in HBSS supplemented with 5 mM HEPES, 0.1% (w/v) bovine serum albumin (BSA) and 0.5 mM 3-isobutyl-1- methylxanthine, and stimulated with increasing concentrations of GLP-2 for 30 min at RT. Eu and Ulight were diluted by cAMP detection buffer and added to the plates separately to terminate the reaction. Plates were incubated at RT for 60 min before measuring the fluorescence intensity at 620 nm and […] by an EnVision multilabel plate reader (PerkinElmer, Boston, USA).

GLP-2R (1-490)-LgBiT = molecular target: T2, GLP-2R (1-490)-LgBiT (Homo sapiens, UniProt O95838); assay: cAMP accumulation, truncated construct; assay type: cell-based; conditions: Table S2, GLP-2R (1-490)-LgBiT; HEK 293T, 30 min, RT; mean ± SEM, n ≥ 3 in duplicate; read-out: cAMP accumulation Emax (% WT)
T2 construct: the C-terminus-truncated GLP-2R(1–490)-LgBiT; HA signal peptide (N); TEV site-OMBP-MBP (C); expressed in transfected cells; host or cells: HEK 293T
Description: as §1

dipeptidyl peptidase 4 = conditions: cited from earlier work
Text: GLP-2R belongs to class B GPCR subfamily, which is mainly expressed in the gut, pancreas and brain.[1] […] GLP-2 is encoded by the proglucagon gene and becomes active after post-translational processing by prohormone convertases. As a gastrointestinal hormone, it mainly regulates intestinal epithelial cell growth and functions that are crucial for digestion and absorption of nutrients.[2]

GLP-2R K231^2.67A = molecular target: T3, GLP-2R K231^2.67A (Homo sapiens, UniProt O95838, K231A); assay: cAMP accumulation, K231^2.67A; assay type: cell-based; set-up: WT (1–553); expressed in transfected cells; HEK 293T (cAMP); conditions: Table S3, K231A; HEK 293T, 30 min, RT; mean ± SEM, n ≥ 3 in duplicate; read-out: cAMP Emax (% WT)
T3 sequence (O95838 1-553 K231A): T1 sequence (O95838 1-553 R344A) with K231A, A344R
Description: as §1

GLP-2R W340^5.36A = molecular target: T4, GLP-2R W340^5.36A (Homo sapiens, UniProt O95838, W340A); assay: cAMP accumulation, W340^5.36A; assay type: cell-based; set-up: WT (1–553); expressed in transfected cells; HEK 293T (cAMP); conditions: Table S3, W340A; HEK 293T, 30 min, RT; mean ± SEM, n ≥ 3 in duplicate; read-out: cAMP Emax (% WT)
T4 sequence (O95838 1-553 W340A): T1 sequence (O95838 1-553 R344A) with W340A, A344R
Description: as §1

T2 sequence (O95838 1-490): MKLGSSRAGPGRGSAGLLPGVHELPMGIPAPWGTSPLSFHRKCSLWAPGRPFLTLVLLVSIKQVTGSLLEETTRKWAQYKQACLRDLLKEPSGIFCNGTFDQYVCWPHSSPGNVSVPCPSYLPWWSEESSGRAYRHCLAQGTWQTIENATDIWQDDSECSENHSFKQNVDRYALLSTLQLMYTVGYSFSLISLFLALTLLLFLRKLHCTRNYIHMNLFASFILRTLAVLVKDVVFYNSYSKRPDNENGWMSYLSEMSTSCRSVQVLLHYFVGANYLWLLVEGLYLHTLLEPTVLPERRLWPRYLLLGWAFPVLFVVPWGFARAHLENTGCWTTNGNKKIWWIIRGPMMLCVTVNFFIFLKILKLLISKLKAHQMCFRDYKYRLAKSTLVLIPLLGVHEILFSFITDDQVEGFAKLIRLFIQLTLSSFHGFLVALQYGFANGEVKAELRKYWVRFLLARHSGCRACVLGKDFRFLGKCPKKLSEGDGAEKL

Compound: CC[C@H](C)[C@H](NC(=O)[C@H](Cc1ccccc1)NC(=O)[C@H](CC(=O)O)NC(=O)[C@H](CCCNC(=N)N)NC(=O)[C@H](C)NC(=O)[C@H](C)NC(=O)[C@H](CC(C)C)NC(=O)[C@H](CC(N)=O)NC(=O)[C@H](CC(=O)O)NC(=O)[C@H](CC(C)C)NC(=O)[C@@H](NC(=O)[C@@H](NC(=O)[C@H](CC(N)=O)NC(=O)[C@H](CCSC)NC(=O)[C@H](CCC(=O)O)NC(=O)[C@H](CC(=O)O)NC(=O)[C@H](CO)NC(=O)[C@H](Cc1ccccc1)NC(=O)[C@H](CO)NC(=O)CNC(=O)[C@H](CC(=O)O)NC(=O)[C@H](C)NC(=O)[C@@H](N)Cc1c[nH]cn1)[C@@H](C)O)[C@@H](C)CC)C(=O)N[C@@H](CC(N)=O)C(=O)N[C@@H](Cc1c[nH]c2ccccc12)C(=O)N[C@@H](CC(C)C)C(=O)N[C@H](C(=O)N[C@@H](CCC(N)=O)C(=O)N[C@H](C(=O)N[C@@H](CCCCN)C(=O)N[C@H](C(=O)N[C@H](C(=O)N[C@@H](CC(=O)O)C(=O)O)[C@@H](C)O)[C@@H](C)CC)[C@@H](C)O)[C@@H](C)CC [Human GLP-2 (1–33)]
- Emax (GLP-2R R344^5.40A): 109 ± 2.8%
- Emax (GLP-2R (1-490)-LgBiT): 85.3 ± 4%
- inactivation by dipeptidyl peptidase 4 in vivo (in words) (dipeptidyl peptidase 4): rapidly inactivated by dipeptidyl peptidase 4 in vivo
- Emax (GLP-2R K231^2.67A): 105 ± 3%
- Emax (GLP-2R W340^5.36A): 107 ± 3.6%

Reference: PMC7785020, “A unique hormonal recognition feature of the human glucagon-like peptide-2 receptor” (Cell Research, 2020)
